Experimental data reported in ChEMBL document CHEMBL1145744, “Anti-HIV agents. Part 55: 3'R,4'R-Di-(O)-(-)-camphanoyl-2',2'-dimethyldihydropyrano[2,3-f]chromone (DCP), a novel anti-HIV agent” (Bioorg Med Chem Lett, 2003).

What was measured:
[1] = In vitro therapeutic index was measured from IC50 to EC50 towards HIV-1 replication in cell growth in H9 lymphocytes; type: functional
[2] = system: H9; test: Concentration that inhibits HIV-1 replication in cell growth in H9 lymphocytes; type: functional, cell-based; settings: Homo sapiens

SMILES	TI [1]	EC50 [2] [µM]	IC50 [2] [µM]
CC1(C)Oc2ccc3ccc(=O)oc3c2[C@@H](OC(=O)C23CCC(C)(C(=O)O2)C3(C)C)[C@H]1OC(=O)C12CCC(C)(C(=O)O1)C2(C)C (stereo partly specified)	136719	–	–
CC1(C)Oc2ccc3c(=O)ccoc3c2[C@@H](OC(=O)C23CCC(C)(C(=O)O2)C3(C)C)[C@H]1OC(=O)C12CCC(C)(C(=O)O1)C2(C)C (stereo partly specified)	14500	0.000678	9.83
Cc1cn([C@H]2C[C@H](N=[N+]=[N-])[C@@H](CO)O2)c(=O)[nH]c1=O [ZIDOVUDINE]	11200	–	500
